Results as given in US8987314B2, “Amide, urea or sulfone amide linked benzothiazole inhibitors of endothelial lipase” (Bristol-Myers Squibb Company, priority 2012, dated 2015).
Read-outs that look alike come from different tables or passages of the source.

Experiments:
Endothelial lipase (EL) = Endothelial lipase (EL) (Homo sapiens (Human), UniProt Q9Y5X9); assay: EL assay: endothelial lipase activity with fluorescent substrate A10070 in DMPG vesicles; type: biochemical
Outline: (§1)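 Vesicles prepared: A10070 dried with DMPG, resuspended in HEPES pH 8.0/NaCl/EDTA, sonicated on ice. Enzyme incubated with compound 30 min at 37° C. Reaction started with 1:10 diluted vesicles. Fluorescence (490/530 nm) followed 60 min; slope from 300–900 secs gives rate.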

hepatic lipase (HL) = hepatic lipase (HL) (Homo sapiens (Human), UniProt P11150); assay: HL assay: hepatic lipase activity with fluorescent substrate A10070 in DMPG vesicles; type: biochemical
Outline: as §1

[1] = EL from conditioned media of HT-1080 cells, 30 min incubation with compound at 37° C., A10070/DMPG vesicles
[2] = HL partially purified from conditioned media of COS cells, 30 min incubation with compound at 37° C., A10070/DMPG vesicles

Chain of hepatic lipase (HL) (P11150 23-499, species assumed): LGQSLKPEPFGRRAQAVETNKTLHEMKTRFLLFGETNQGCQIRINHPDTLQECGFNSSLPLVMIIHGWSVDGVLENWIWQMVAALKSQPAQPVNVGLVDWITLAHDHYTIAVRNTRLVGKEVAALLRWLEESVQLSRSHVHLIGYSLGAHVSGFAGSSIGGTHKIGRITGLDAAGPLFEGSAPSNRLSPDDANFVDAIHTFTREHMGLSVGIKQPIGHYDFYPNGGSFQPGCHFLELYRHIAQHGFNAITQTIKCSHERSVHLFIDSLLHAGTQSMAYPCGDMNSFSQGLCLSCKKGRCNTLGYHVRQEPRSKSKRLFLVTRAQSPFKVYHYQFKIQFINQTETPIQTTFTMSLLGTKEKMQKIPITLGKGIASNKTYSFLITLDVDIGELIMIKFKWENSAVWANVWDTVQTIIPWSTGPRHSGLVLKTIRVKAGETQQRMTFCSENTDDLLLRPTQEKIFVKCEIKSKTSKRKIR
Chain of Endothelial lipase (EL) (Q9Y5X9 21-500): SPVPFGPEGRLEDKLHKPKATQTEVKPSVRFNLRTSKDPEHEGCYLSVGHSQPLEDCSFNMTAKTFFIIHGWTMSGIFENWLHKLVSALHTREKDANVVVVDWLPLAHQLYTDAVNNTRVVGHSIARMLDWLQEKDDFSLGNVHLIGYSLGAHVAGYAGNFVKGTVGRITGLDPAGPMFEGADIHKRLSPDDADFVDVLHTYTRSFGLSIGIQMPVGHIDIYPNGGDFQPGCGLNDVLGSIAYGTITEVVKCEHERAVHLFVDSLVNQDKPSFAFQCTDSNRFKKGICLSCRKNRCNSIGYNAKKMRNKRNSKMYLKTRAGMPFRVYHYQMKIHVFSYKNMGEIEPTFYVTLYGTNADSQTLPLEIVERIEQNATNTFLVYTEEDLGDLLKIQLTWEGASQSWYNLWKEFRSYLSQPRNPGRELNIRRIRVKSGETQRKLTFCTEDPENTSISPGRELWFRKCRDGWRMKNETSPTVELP

Row | SMILES | IC50 (Endothelial lipase (EL)) [µM] | IC50 (hepatic lipase (HL)) [µM] | IC50 (Endothelial lipase (EL); [1]) [µM] | IC50 (hepatic lipase (HL); [2]) [µM]
1 | CC(C)(O)Cn1cc(-c2ccc3nc(C(C(=O)NCCS(N)(=O)=O)S(C)(=O)=O)sc3c2)ccc1=O (stereo not drawn) [Example B186, 2-(6-(1-(2-hydroxy-2-methylpropyl)-6-oxo-1,6-dihydro-3-pyridinyl)-1,3-benzothiazol-2-yl)-2-(methylsulfonyl)-N-(2-sulfamoylethyl)acetamide] | 0.0011 | 10 |  | 
2 | CS(=O)(=O)C(C(=O)NCCS(N)(=O)=O)c1nc2ccc(-c3cccc(O)n3)cc2s1 (stereo not drawn) [Example B188, 2-(methylsulfonyl)-2-(6-(6-oxo-1,6-dihydro-2-pyridinyl)-1,3-benzothiazol-2-yl)-N-(2-sulfamoylethyl)acetamide] | < 0.01 | 0.398 |  | 
3 | CS(=O)(=O)C(C(=O)NCCS(N)(=O)=O)c1nc2ccc(-c3ccnc(O)c3)cc2s1 (stereo not drawn) [Example B189, 2-(methylsulfonyl)-2-(6-(2-oxo-1,2-dihydro-4-pyridinyl)-1,3-benzothiazol-2-yl)-N-(2-sulfamoylethyl)acetamide] | < 0.01 | 0.013 |  | 
4 | CS(=O)(=O)C(C(=O)NCCS(N)(=O)=O)c1nc2ccc(-c3cc(O)ncc3F)cc2s1 (stereo not drawn) [Example B192, 2-(6-(5-fluoro-2-oxo-1,2-dihydro-4-pyridinyl)-1,3-benzothiazol-2-yl)-2-(methylsulfonyl)-N-(2-sulfamoylethyl)acetamide] | < 0.01 | 20.6 |  | 
5 | CS(=O)(=O)C(C(=O)NCCS(N)(=O)=O)c1nc2ccc(-c3ccnc(O)c3F)cc2s1 (stereo not drawn) [Example B193, 2-[6-(3-fluoro-2-hydroxy-4-pyridinyl)-1,3-benzothiazol-2-yl]-2-(methylsulfonyl)-N-(2-sulfamoylethyl)acetamide] | 0.0005 | 0.238 |  | 
6 | CS(=O)(=O)C(C(=O)NCCS(N)(=O)=O)c1nc2cc(-c3ccc(O)nc3)ccc2s1 (stereo not drawn) [Example B195, 2-(methylsulfonyl)-2-(5-(6-oxo-1,6-dihydro-3-pyridinyl)-1,3-benzothiazol-2-yl)-N-(2-sulfamoylethyl)acetamide] | 0.001 | 0.105 |  | 
7 | NS(=O)(=O)CCNC(=O)C(c1nc2ccc(C(=O)N3CCc4ccccc4C3)cc2s1)S(=O)(=O)CCC(F)(F)F (stereo not drawn) [Example B201, 2-(6-(3,4-dihydro-2(1H)-isoquinolinylcarbonyl)-1,3-benzothiazol-2-yl)-N-(2-sulfamoylethyl)-2-((3,3,3-trifluoropropyl)sulfonyl)a-cetamide] | 0.023 | 0.311 |  | 
8 | COCCNC(=O)c1cccc(-c2ccc3nc(C(C(=O)NCCS(N)(=O)=O)S(=O)(=O)CCC(F)(F)F)sc3c2)c1 (stereo not drawn) [Example B202, N-(2-methoxyethyl)-3-(2-(2-oxo-2-((2-sulfamoylethyl)amino)-1-((3,3,3-trifluoropropyl)sulfonyl)ethyl)benzo[d]thiazol-6-yl)benzamide] |  |  | 0.024 | 0.17
9 | COCCS(=O)(=O)C(C(=O)NCc1nnc(C)o1)c1nc2ccc(-c3ccccc3)cc2s1 (stereo not drawn) [Example B204, 2-(2-methoxyethane-sulfonyl)-N-[(5-methyl-1,3,4-oxadiazol-2-yl)methyl]-2-(6-phenyl-1,3-benzothiazol-2-yl)a-cetamide] | 0.0237 | 0.0175 |  | 
10 | COC(=O)CCS(=O)(=O)C(C(=O)NCc1nnc(C)o1)c1nc2ccc(-c3ccccc3)cc2s1 (stereo not drawn) [Example B205, methyl 3-({[(5-methyl-1,3,4-oxadiazol-2-yl)meth-yl]carbamoyl}(6-phenyl-1,3-benzothiazol-2-yl)methanesulfonyl)pro-panoate] | 0.205 | 0.101 |  | 

The next lines start with the values.

Row | IC50 (Endothelial lipase (EL)) [µM] | IC50 (hepatic lipase (HL)) [µM] | IC50 (Endothelial lipase (EL); [1]) [µM] | IC50 (hepatic lipase (HL); [2]) [µM] | SMILES
11 | < 0.01 | < 0.01 |  |  | COc1cccc(-c2ccc3nc(C(C(=O)NCCS(N)(=O)=O)S(C)(=O)=O)sc3c2)n1 (stereo not drawn) [Example B185, 2-(6-(6-methoxy-2-pyridinyl)-1,3-benzothiazol-2-yl)-2-(methylsulfonyl)-N-(2-sulfamoylethyl)acetamide]
12 |  |  | 0.016 | 0.155 | CS(=O)(=O)C(C(=O)NCCS(N)(=O)=O)c1nc2ccc(-c3ccc(O)nc3)cc2s1 (stereo not drawn) [Example B187, 2-(Methylsulfonyl)-2-(6-(6-oxo-1,6-dihydro-3-pyridinyl)-1,3-benzothiazol-2-yl)-N-(2-sulfamoylethyl)acetamide]
13 | < 0.01 | 0.272 |  |  | COCCS(=O)(=O)C(C(=O)NCCS(N)(=O)=O)c1nc2ccc(-c3ccnc(O)c3)cc2s1 (stereo not drawn) [Example B190, 2-((2-methoxyethyl)sul-fonyl)-2-(6-(2-oxo-1,2-dihydro-4-pyridinyl)-1,3-benzothiazol-2-yl)-N-(2-sulfamoylethyl)acetamide]
14 | < 0.01 | 0.445 |  |  | NS(=O)(=O)CCNC(=O)C(c1nc2ccc(-c3ccnc(O)c3)cc2s1)S(=O)(=O)CCC(F)(F)F (stereo not drawn) [Example B191, 2-(6-(2-oxo-1,2-dihydro-4-pyridinyl)-1,3-benzothiazol-2-yl)-N-(2-sulfamoylethyl)-2-((3,3,3-trifluoropropyl)sulfonyl)a-cetamide]
15 | 0.002 | 0.095 |  |  | CS(=O)(=O)C(C(=O)NCCS(N)(=O)=O)c1nc2cc(-c3ccnc(O)c3)ccc2s1 (stereo not drawn) [Example B194, 2-(methylsulfonyl)-2-(5-(2-oxo-1,2-dihydro-4-pyridinyl)-1,3-benzothiazol-2-yl)-N-(2-sulfamoylethyl)acetamide]
16 |  |  | 0.065 | 0.379 | CC(C)(C)OC(=O)c1ccc2nc(C(C(=O)NCCS(N)(=O)=O)S(=O)(=O)CCC(F)(F)F)sc2c1 (stereo not drawn) [Example B196, tert-Butyl 2-(2-oxo-2-((2-sulfamoylethyl)amino)-1-((3,3-trifluoropropyl)sulfonyl)ethyl)benzo[d]thiazole-6-carboxylate]
17 |  |  | < 0.01 | 10.1 | NS(=O)(=O)CCNC(=O)C(c1nc2ccc(C(=O)N3CCC(F)(F)C3)cc2s1)S(=O)(=O)CCC(F)(F)F (stereo not drawn) [Example B197, 2-(6-(3,3-Difluoropyrrolidine-1-carbonyl)benzo[d]thiazol-2-yl)-N-(2-sulfamoylethyl)-2-((3,3,3-trifluoropropyl)sulfonyl)acetamide]
18 | 0.148 | 3.93 |  |  | NS(=O)(=O)CCNC(=O)C(c1nc2ccc(C(=O)NCCc3c[nH]cn3)cc2s1)S(=O)(=O)CCC(F)(F)F (stereo not drawn) [Example B198, N-(2-(1H-imidazol-4-yl)ethyl)-2-(2-oxo-2-((2-sulfamoylethyl)amino)-1-((3,3,3-trifluoropropyl)sul-fonyl)ethyl)-1,3-benzothiazole-6-carboxamide]
19 | 0.166 | 3.67 |  |  | CC(C)c1cc(CNC(=O)c2ccc3nc(C(C(=O)NCCS(N)(=O)=O)S(=O)(=O)CCC(F)(F)F)sc3c2)on1 (stereo not drawn) [Example B199, N-((3-isopropyl-5-isoxazolyl)methyl)-2-(2-oxo-2-((2-sulfamoylethyl)a-mino)-1-((3,3,3-trifluoropropyl)sulfonyl)eth-yl)-1,3-benzothiazole-6-carboxamide]
20 | 0.026 | 10 |  |  | NS(=O)(=O)CCNC(=O)C(c1nc2ccc(C(=O)N3CC(F)(F)C3)cc2s1)S(=O)(=O)CCC(F)(F)F (stereo not drawn) [Example B200, 2-(6-((3,3-difluoro-1-azetidinyl)carbonyl)-1,3-benzothiazol-2-yl)-N-(2-sulfamoylethyl)-2-((3,3,3-trifluoropropyl)sulfonyl)a-cetamide]
21 |  |  | 0.01 | 0.141 | Cc1cc2nc(C(C(=O)NCCS(N)(=O)=O)S(C)(=O)=O)sc2cc1-c1cnn(C)c1 (stereo not drawn) [Example B203, 2-(5-methyl-6-(1-methyl-1H-pyrazol-4-yl)-1,3-benzothiazol-2-yl)-2-(methylsulfonyl)-N-(2-sulfamoylethyl)acetamide]
